Values quoted from earlier work in patent US20040142914A1, “Extended transdermal contraceptive regimens” (priority 2002, published 2004).

Conditions: humans

share of norgestimate converted to norelgestromin in vivo: ≥ 80%
SMILES: C#C[C@]1(OC(C)=O)CC[C@H]2[C@@H]3CCC4=CC(=NO)CC[C@@H]4[C@H]3CC[C@@]21CC (mixture of isomers) [norgestimate]
